Consider 27 compounds from US20050288347A1, “Certain triazole-based compounds, compositions, and uses thereof” (priority 2004, published 2005).

Entries after “also recorded” stand apart in the source; their conditions may differ.

The target in the first assay is protein kinase. Briefly: HTS ATP-utilizing enzyme assay, off-chip mobility-shift format (Caliper HTS 250). Type of assay: biochemical, human. The settings on record: kinase(s) for which the compound exhibits protein kinase inhibitory activity; test compound 10 μM; active = greater than three-sigma from the mean activity of inactive compounds. In short, it runs like this:
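Single-point screen at 10 μM compound in HEPES pH 7.5 buffer with Triton X-100 and BSA, 2.5 h at 20–22 °C. Substrate-to-phosphopeptide ratio measured by off-chip microfluidic mobility shift; EDTA wells as 100% and DMSO wells as 0% control, hits called at three-sigma limits.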
Consider `CCn1c(COc2ccc(Cl)c(C)c2)nnc1SCC(=O)O`, for which the Kinase result is “MSK1”.
As to `Cc1ccc(NCc2nnc(S)n2-c2ccccc2)cc1Cl`, the Kinase result was “GSK3-β; also recorded: GSK3-α; also recorded: AURORA-A”.
With `O=C(O)CSc1nnc(-c2ccco2)n1CC1CCCO1` (stereo not drawn), the Kinase result was “AURORA-A”.
Still for that read-out and setting: the same measure for `CCn1c(CNc2ccc(C)c(Cl)c2)nnc1SCC(=O)O`: “PDGFRR-α”; for `CCOC(=O)c1sc(NC(=O)CSc2nnc(Cn3nnc4ccccc43)n2C)nc1C`: “GSK3-β”.
Turning to `CCn1c(S)nnc1COc1ccc(Cl)c(C)c1` [5-((4-chloro-3-methylphenoxy)methyl)-4-ethyl-4H-1,2,4-triazole-3-thiol], the Kinase result is recorded as “GSK3-α”.
Still for that read-out and setting: the same measure for `C=CCn1c(CSc2nc3ccccc3s2)nnc1SCC(=O)NCCO`: “HCK”; for `COC(=O)c1ccccc1NC(=O)CSc1nnc(CNc2ccc(OC)cc2)n1-c1ccc(C)cc1`: “PDGFRR-α and AURORA-A and FYN”; for `CC(C)N(C(=O)CSc1nnc(-c2ccccc2N)n1C)C(C)C`: “FYN and PRAK”.
On the same count and under the same terms, the same measure for `Cc1cc(NC(=O)CSc2nnc(-c3ccc(O)cc3)n2C)no1`: “GSK3-β; also recorded: GSK3-α”.
Turning to `CCn1c(COc2ccc(OC)cc2)nnc1SCC(=O)O`, the Kinase entry is recorded as “AKT1”.
The same measure, in the same setting: the same measure for `CCn1c(SCC(=O)Nc2cc(OC)c(OC)cc2C(=O)O)nnc1-c1ccc(O)cc1`: “AURORA-A”.
`Cc1ccc(-n2c(SC(C)C(=O)O)nnc2-c2cccnc2)cc1` (stereo not drawn) [2-(5-(pyridin-3-yl)-4-p-tolyl-4H-1,2,4-triazol-3-ylthio)propanoic acid]: the Kinase result is on record as “AURORA-A”.
The same measure, in the same setting: the same measure for `NC(=O)c1c(NC(=O)CSc2nnc(-c3ccncc3)n2CC2CCCO2)sc2c1CCCC2` (stereo not drawn): “GSK3-β; also recorded: GSK3-α; also recorded: AURORA-A”; for `COc1ccccc1-n1c(SCC(=O)OCc2ccccc2)nnc1-c1ccccc1O`: “KIT”; for `O=C(O)CSc1nnc(-c2ccc(OC(F)(F)F)cc2)[nH]1` [2-(5-(4-(trifluoromethoxy)phenyl)-4H-1,2,4-triazol-3-ylthio)acetic acid]: “GSK3-β; also recorded: GSK3-α; also recorded: DYRK2”.
On the same count and under the same terms, the same measure for `COc1ccc(-n2c(S)nnc2CNc2ccc(Cl)cc2)cc1`: “AURORA-A; also recorded: GSK3-α”; for `Cc1ccc(-n2c(COc3cccc4ccccc34)nnc2SC(C)C(=O)O)cc1` (stereo not drawn): “AKT1”.

Staying with this assay, now noted: test compound 10 μM; active = activity greater than three-sigma from the mean of the predominately inactive population for that enzyme.
For the compound `COc1ccc(-n2c(CNc3ccc(F)cc3)nnc2SC)cc1`, the “protein kinase against which the compound exhibits inhibitory activity (Table 3)” value is “AKT1”.
For the compound `Cc1cccc(-c2nnc(SCc3cccc4ccccc34)[nH]2)c1` [3-(naphthalen-1-ylmethylthio)-5-m-tolyl-4H-1,2,4-triazole], the “protein kinase against which the compound exhibits inhibitory activity (Table 3)” value is reported as “AURORA-A”.
Consider `COc1ccccc1-n1c(SCC(=O)c2ccc(F)cc2)nnc1-c1cccc(Cl)c1`, for which the “protein kinase against which the compound exhibits inhibitory activity (Table 3)” value is given as “ROCK2”.
For the compound `Clc1ccc(CSc2nnc(-c3ccncc3)n2Cc2ccco2)cc1`, the “protein kinase against which the compound exhibits inhibitory activity (Table 3)” value is “MSK1 and MSK2 and AKT3”.
On the same count and under the same terms, then `COc1ccccc1-n1c(SCCC2COCCN2)nnc1-c1cccc(Cl)c1` (stereo not drawn), with “ROCK2”.
Still for that read-out and setting: the same measure for `COc1ccccc1-n1c(SCC(=O)c2ccc(Cl)s2)nnc1-c1cccc(Cl)c1`: “ROCK2”; for `CCOC(=O)c1ccc(CSc2nnc(-c3ccccc3)[nH]2)o1` [ethyl 5-((5-phenyl-4H-1,2,4-triazol-3-ylthio)methyl)furan-2-carboxylate]: “AURORA-A; also recorded: FLT-3; also recorded: GSK3-β”; for `Clc1ccc(CSc2nnc(-c3ccncc3)n2-c2ccccc2)cc1` [4-(5-(4-chlorobenzylthio)-4-phenyl-4H-1,2,4-triazol-3-yl)pyridine]: “AURORA-A and PKA and MSK1”.
Turning to `CCc1nnc(SCC=C(C)C)n1Cc1ccc2c(c1)OCO2`, the “protein kinase against which the compound exhibits inhibitory activity (Table 3)” value is listed as “GSK3-β; also recorded: GSK3-α”.
